Source: patent US10947263B2, “Cyclic dinucleotides as anticancer agents” (BRISTOL-MYERS SQUIBB COMPANY, priority 2017, dated 2021)
Like-named read-outs stand apart in the source and are kept apart here.

How the values were obtained:
[1] = tested on: STING / NF-κB pathway in THP1-Dual cells; assay: STING THP1 Reporter Assay, NF-κB pathway (SEAP, QUANTI-Blue); assay type: cell-based; settings: 10% human plasma, 100% activation = 100 μM cGAMP, SEAP readout, read-out: THP1 Reporter Assays EC50 NFkB
From the text: (§1) THP1-Dual™ cells were derived from the human THP-1 monocyte cell line by stable integration of two inducible reporter constructs. To this end, THP1-Dual™ cells allow the simultaneous study of the […], by monitoring the activity of SEAP, and the IRF pathway by assessing the activity of a secreted luciferase (Lucia). Both reporter proteins are readily measurable in the cell culture supernatant when using QUANTI-Blue™, a SEAP detection reagent, and QUANTI-Luc™, a luciferase detection reagent.
(§2) THP1-Dual™ cells induce the activation of NF-κB in response to STING agonists. They also trigger the IRF pathway upon stimulation with STING agonists, such as cGAMP. Here, the THP-1-Dual cells were used to assess STING binders for function on the cellular level.
(§3) Serial dilutions of compounds in DMSO were added to low volume 384 well plates at 100 nl/well using an ECHO acoustic dispenser (Labcyte, model 550) to achieve final starting concentration of 100 μM in cell suspension. THP-1 Dual™ STING reporter cells (Invivogen, Dual cells cat #THPD-nfis) were added to the plates with compounds at 15,000 cells in 10 μL per well in RPMI media (Gibco, cat #11875) containing 10% human plasma in a low volume 384-well black wall clear bottom tissue culture plate (Corning, cat #3542) for SEAP assay and low volume solid white plate (Corning, cat #3826) for luciferase assay. One column of the plate was reserved for treatment with cGAMP at 100 μM for 100% activation calculation and one column for no treatment (DMSO only) for baseline activation. Plates were then incubated in 37 OC incubator at 5% CO2 for 20 hours.
(§4) In the SEAP assay, […] 2× QuantiBlue (Invivogen, cat #Rep-qb2) is added to 384 well black plates seeded with THP1 cells and incubated at 37° C. for 2 hours. Plates were read on the Envision (Perkin Elmer) at 620 nm wavelength (OD620). In the luciferase assay, 5 μl of Quantiluc (Invivogen, Rep-qlc2) is added to white 384 well plates seeded with THP1 cells and read at 5 minutes on the Envision (Perkin Elmer) using a luminescence protocol (RLU). For both cell lines, 100% activation was determined by value (RLU) of THP-1 Dual STING cells stimulated with 100 μM cGAMP (Invivogen, cat #TLRL-NACGA23-5).

[2] = molecular target: T1, STING AQ (His-TVMV-S-hSTING(155-341)-G230A-R293Q) (Homo sapiens, UniProt Q86WV6, G230A/H232R/R293Q); assay: STING HTRF binding assay (time resolved FRET competition), STING AQ; settings: 20 nM His-tagged STING AQ cytoplasmic domain, 40 nM fluorescein-labeled cGAMP analog probe, one hour; read-out: HTRF Binding Assays IC50 AQ
T1 construct: STING AQ: His-TVMV-S-hSTING(155-341)-G230A-R293Q
Protocol: (§5) A time resolved FRET-based competition binding assay was used to assess test article binding to STING WT and STING AQ. His-tagged STING cytoplasmic domain (WT or AQ) at a concentration of 20 nM was incubated with 2.5 nM Tb-labeled anti-His antibody, test compound, and fluorescein-labeled cGAMP analog probe (BioLog cat. no. C195) at a concentration of 200 nM (STING WT) or 40 nM (STING AQ) in PBS containing 0.005% Tween-20 and 0.1% BSA for one hour. Fluorescence at 495 nm and 520 nm was measured using an EnVision microplate reader to quantify FRET between Tb-labeled anti-His antibody and fluorescein-labeled probe. Background was defined as the signal obtained in the absence of STING protein, and background subtracted FRET ratios were normalized to the maximum signal obtained in the absence of test compound. These values were converted to a percent inhibition. Percent inhibition was determined for test compounds at 11 concentrations. The IC50, defined as the concentration of competing test compound needed to reduce specific binding of the probe by 50%, was calculated using the 4 parameter logistic equation to fit the data
STING AQ: His-TVMV-S-hSTING(155-341)-G230A-R293Q • […] […] […] […] LRQEEKEEV (SEQ ID NO:2)

[3] = molecular target: T2, STING WT (His-TVMV-S-hSTING(155-341)-H232R) (Homo sapiens, UniProt Q86WV6, H232R); assay: STING HTRF binding assay (time resolved FRET competition), STING WT; settings: 20 nM His-tagged STING WT cytoplasmic domain, 200 nM fluorescein-labeled cGAMP analog probe, one hour; read-out: HTRF Binding Assays IC50 WT
T2 construct: STING WT: His-TVMV-S-hSTING(155-341)-H232R
Protocol: as §5
STING WT: His-TVMV-S-hSTING(155-341)-H232R • […] […] […] […] LRQEEKEEV (SEQ ID NO:1)

[4] = tested on: STING / IRF pathway in THP1-Dual cells; assay: STING THP1 Reporter Assay, IRF pathway (secreted Lucia luciferase, QUANTI-Luc); assay type: cell-based; settings: 10% human plasma, 100% activation = 100 μM cGAMP, luciferase readout, read-out: THP1 Reporter Assays EC50 IRF3
From the text: as §1, §2, §3, §4

T2 sequence (Q86WV6 with tags, fused parts or gaps H232R): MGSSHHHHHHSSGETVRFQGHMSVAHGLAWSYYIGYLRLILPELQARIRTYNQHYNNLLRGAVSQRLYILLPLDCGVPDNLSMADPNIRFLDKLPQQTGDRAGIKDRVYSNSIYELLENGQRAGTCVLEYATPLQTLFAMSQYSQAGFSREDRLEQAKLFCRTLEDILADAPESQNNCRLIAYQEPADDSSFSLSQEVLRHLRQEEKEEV
T1 sequence (Q86WV6 with tags, fused parts or gaps G230A/H232R/R293Q): as the sequence (Q86WV6 with tags, fused parts or gaps H232R) above, with G99A, R162Q counted along it

EC50 ([1]; Homo sapiens, THP1-Dual, 20 h) | IC50 [2] | IC50 [3] | EC50 ([4]; Homo sapiens, THP1-Dual, 20 h) | EC50 ([1]; 20 hours) | EC50 ([4]; 20 hours) | Compound
> 100 µM | 66.9 µM | > 100 µM | > 100 µM |  |  | Nc1ncnc2c1ncn2[C@@H]1O[C@@H]2COP(=O)(O)O[C@@H]3[C@H](O)[C@@H](COP(=O)(S)O[C@H]2[C@H]1O)O[C@H]3n1nnc2c([N+](=O)[O-])cccc21 (stereo partly drawn) [Example 18-1, (1R,6R,8R,9R,10S,15R,17R,18R)-8-(6-amino-9H-purin-9-yl)-3,9,18-trihydroxy-17-(4-nitro-1H-1,2,3-benzotriazol-1-yl)-12-sulfanyl-2,4,7,11,13,16-hexaoxa-3λ^5,12λ^5-diphosphatricyclo[13.2.1.0^6,10]octadecane-3,12-dione]
 | 0.005 µM | 0.05 µM |  | 8.9 µM | 5.1 µM | NC(=O)c1cccc2c1nnn2[C@@H]1O[C@@H]2COP(=O)(S)O[C@H]3[C@@H](F)[C@H](n4cnc5c(N)ncnc54)O[C@@H]3COP(=O)(S)O[C@@H]1[C@@H]2F (single isomer, unassigned) [Example 10-3]
11.7 µM | 0.01 µM | 0.05 µM | 3.3 µM |  |  | O=[N+]([O-])c1cccc2c1nnn2[C@@H]1O[C@@H]2COP(=O)(S)O[C@H]3[C@@H](F)[C@H](n4cnc5c4ncn4ccnc54)O[C@@H]3COP(=O)(S)O[C@@H]1[C@@H]2F (stereo partly drawn) [Example 14-1, (1S,6R,8R,9R,10R,15R,17R,18R)-9,18-difluoro-8-{3H-imidazo[2,1-f]purin-3-yl}-17-(4-nitro-1H-1,2,3-benzotriazol-1-yl)-3,12-disulfanyl-2,4,7,11,13,16-hexaoxa-3λ^5,12λ^5-diphosphatricyclo[13.2.1.0^6,10]octadecane-3,12-dione]
> 100 µM | 0.65 µM | 4.66 µM | > 100 µM |  |  | Nc1ncnc2c1ncn2[C@@H]1O[C@@H]2COP(=O)(O)O[C@@H]3[C@H](O)[C@@H](COP(=O)(S)O[C@H]2[C@H]1F)O[C@H]3n1nnc2c([N+](=O)[O-])cccc21 (stereo partly drawn) [Example 19-1, (1R,6R,8R,9R,10R,15R,17R, 18R)-8-(6-amino-9H-purin-9-yl)-9-fluoro-3,12,18-trihydroxy-17-(4-nitro-1H-1,2,3-benzotriazol-1-yl)-12-sulfanylidene-2,4,7,11,13, 16-hexaoxa-3λ^5,12λ^5-diphos-phatricyclo[13.2.1.0^6,10]octa-decan-3-one]
 | 0.004 µM | 0.05 µM |  | 36.8 µM | 8.8 µM | NC(=O)c1cccc2c1nnn2[C@@H]1O[C@@H]2COP(=O)(O)O[C@H]3[C@@H](F)[C@H](n4cnc5c(N)ncnc54)O[C@@H]3COP(=O)(S)O[C@@H]1[C@@H]2F (single isomer, unassigned) [Example 6-2]
 | 0.01 µM | 0.05 µM |  | 8 µM | 5.5 µM | Nc1ncnc2c1ncn2[C@@H]1O[C@@H]2COP(=O)(S)O[C@@H]3[C@H](O)[C@@H](COP(=O)(S)O[C@H]2[C@H]1F)O[C@H]3n1nnc2c([N+](=O)[O-])cccc21 (single isomer, unassigned) [Example 7-4]
 | 0.02 µM | 0.14 µM |  | 15.3 µM | 10 µM | NC(=O)c1cccc2c1nnn2[C@@H]1O[C@@H]2COP(=O)(S)O[C@H]3[C@@H](F)[C@H](n4cnc5c(N)ncnc54)O[C@@H]3COP(=O)(S)O[C@@H]1[C@@H]2O (single isomer, unassigned) [Example 8-3]
